Results from US8946215B2, “Hydroxy-substituted imidazo[1,2-a]pyridinecarboxamides and their use” (Bayer Pharma Aktiengesellschaft, priority 2012, dated 2015).

Tests used:
[1] = Determination of pharmacokinetic parameters following intravenous and oral administration (rats); format: in vivo, male Wistar rats; settings: following intravenous and peroral administration
Description: B-6. Determination of Pharmacokinetic Parameters Following Intravenous and Oral Administration
The pharmacokinetic parameters of the compounds according to the invention are determined in male CD-1 mice, male Wistar rats and female beagles. Intravenous administration in the case of mice and rats is carried out by means of a species-specific plasma/DMSO formulation, and in the case of dogs by means of a water/PEG400/ethanol formulation. In all species, oral administration of the dissolved substance is performed via gavage, based on a water/PEG400/ethanol formulation.
The taking of blood from rats is simplified by inserting a silicone catheter into the right Vena jugularis externa prior to substance administration. The operation is carried out at least one day prior to the experiment with […] and administration of an analgesic (atropin/Rimadyl (3/1) 0.1 ml s.c.). The blood is taken (generally more than 10 time points) within a time window including terminal time points of at least 24 to a maximum of 72 hours after substance administration. When the blood is taken, it is passed into heparinised tubes. Then the blood plasma is obtained by centrifugation and is optionally stored at −20° C. until further processing.
An internal standard (which may also be a chemically unrelated substance) is added to the samples of the compounds according to the invention, calibration samples and qualifiers, and there follows protein precipitation by means of excess acetonitrile. Addition of a buffer solution matched to the LC conditions, and subsequent vortexing, is followed by centrifugation at 1000 g. The supernatant is analysed by LC-MS/MS using C18 reversed-phase columns and variable mobile phase mixtures.
The substances are quantified via the peak heights or areas from extracted ion chromatograms of specific selected ion monitoring experiments.
The plasma concentration/time plots determined are used to calculate the pharmacokinetic parameters such as AUC, Cmax, t1/2 (terminal half life), F (Bioavailability), MRT (Mean Residence Time) and CL (Clearance), using a validated pharmacokinetic calculation programme.
Since the substance quantification is carried out in plasma, it is necessary to determine the blood/plasma distribution of the substance in order to be able to adjust the pharmacokinetic parameters correspondingly. For this purpose, a defined amount of substance is incubated in heparinised whole blood of the species in question in a rocking roller mixer for 20 min. After centrifugation at 1000 g, the plasma concentration is measured (by means of LC-MS/MS; see above) and determined by calculating the ratio of the Cblood/Cplasma value.

[2] = biological target: T1, recombinant guanylate cyclase reporter cell line (Rattus norvegicus, UniProt P19686+P20595); experiment: Action on recombinant guanylate cyclase reporter cell line; format: cell-based; settings: in some cases mean values obtained from individual determinations
T1 construct: expressed in transfected cells
T1 sequence (P20595 1-619): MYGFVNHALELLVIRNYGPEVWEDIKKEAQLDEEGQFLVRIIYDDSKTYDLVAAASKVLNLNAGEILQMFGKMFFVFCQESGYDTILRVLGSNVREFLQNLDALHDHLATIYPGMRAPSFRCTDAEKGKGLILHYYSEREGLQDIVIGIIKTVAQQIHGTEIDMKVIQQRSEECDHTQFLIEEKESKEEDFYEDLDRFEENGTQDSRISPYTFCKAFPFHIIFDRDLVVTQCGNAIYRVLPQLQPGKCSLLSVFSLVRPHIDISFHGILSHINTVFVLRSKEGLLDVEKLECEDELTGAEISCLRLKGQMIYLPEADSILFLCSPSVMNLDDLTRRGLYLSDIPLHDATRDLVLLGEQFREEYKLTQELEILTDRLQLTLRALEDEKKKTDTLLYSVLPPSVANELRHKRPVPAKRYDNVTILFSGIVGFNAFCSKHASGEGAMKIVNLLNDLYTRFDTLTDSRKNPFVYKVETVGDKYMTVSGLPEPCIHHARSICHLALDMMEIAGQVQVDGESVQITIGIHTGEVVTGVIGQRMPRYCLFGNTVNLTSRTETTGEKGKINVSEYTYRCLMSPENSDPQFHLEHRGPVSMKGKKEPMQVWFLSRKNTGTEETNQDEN
T1 sequence (P19686 1-690): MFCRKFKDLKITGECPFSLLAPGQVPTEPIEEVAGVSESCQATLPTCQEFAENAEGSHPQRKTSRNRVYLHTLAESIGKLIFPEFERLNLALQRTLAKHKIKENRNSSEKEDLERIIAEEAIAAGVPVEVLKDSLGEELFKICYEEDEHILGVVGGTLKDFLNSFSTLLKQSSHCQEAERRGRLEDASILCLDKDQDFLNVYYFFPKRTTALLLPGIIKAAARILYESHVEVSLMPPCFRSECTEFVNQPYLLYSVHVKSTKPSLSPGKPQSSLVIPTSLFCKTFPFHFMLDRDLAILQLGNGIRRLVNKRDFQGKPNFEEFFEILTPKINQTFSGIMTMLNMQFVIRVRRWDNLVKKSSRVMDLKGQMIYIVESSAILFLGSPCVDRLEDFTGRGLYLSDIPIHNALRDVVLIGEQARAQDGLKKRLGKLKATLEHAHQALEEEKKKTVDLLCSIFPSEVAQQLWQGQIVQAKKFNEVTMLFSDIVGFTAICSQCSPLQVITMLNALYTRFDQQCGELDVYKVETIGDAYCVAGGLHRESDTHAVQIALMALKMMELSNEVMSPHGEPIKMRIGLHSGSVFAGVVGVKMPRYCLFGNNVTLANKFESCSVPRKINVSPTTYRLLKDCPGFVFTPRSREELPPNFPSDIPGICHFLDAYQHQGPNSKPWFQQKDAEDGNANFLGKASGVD
Method in brief: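 Cell-based reporter assay with recombinant guanylate cyclase expressed in a reporter cell line, per a published method. Activity reported as minimal effective concentration (MEC), in some cases as the mean of individual determinations.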

`Cc1cc(OCc2ncccc2F)c2nc(C)c(C(=O)NC(CCC(F)(F)C(F)(F)F)C(C)(C)O)n2c1` (single isomer, unassigned; ent-8) [Example 187, ent-8-[(3-fluoropyridin-2-yl)methoxy]-2,6-dimethyl-N-(6,6,7,7,7-pentafluor-2-hydroxy-2-methylheptan-3-yl)imidazo[1,2-a]pyridine-3-carboxamide (enantiomer B)] gave an AUCnorm [1] of 2.0 kg·h/L, a CLblood [1] of 11.8 mL/min/kg and an MRT ([1]; male, Wistar, rat, plasma, read-out: MRT (Mean Residence Time)) of 4 h. The half-life ([1]; male, Wistar, rat, plasma, read-out: t½ (terminal half life) (converted)) was 4.6 h and the “MEC (minimal effective concentration)” value [2] was 1 µM.
